# Source: ChEMBL document CHEMBL3758162, “Synthesis, biological characterization and molecular modeling insights of spirochromanes as potent HDAC inhibitors” (Eur J Med Chem, 2016)
# Assays:
# A549 = experiment: Antiproliferative activity against human A549 cells assessed as cell viability after 72 hrs by CellTitre-Glo luminescent assay; assay type: functional, cell-based; details: Homo sapiens, A549, 72 h
# [1] = Antiproliferative activity against human HCT116 cells assessed as cell viability after 72 hrs by CellTitre-Glo luminescent assay; assay type: functional, cell-based, HCT-116; details: Homo sapiens, HCT-116, 72 h
# Histone deacetylase = experiment: Inhibition of HDAC in human HeLa cells nuclear extract using Fluor de lys as substrate after 15 mins by fluorometric analysis; assay type: cell-based
# K562 = experiment: Antiproliferative activity against human K562 cells assessed as cell viability after 72 hrs by CellTitre-Glo luminescent assay; assay type: functional, cell-based; details: Homo sapiens, K562, 72 h
SMILES,IC50 (A549),IC50 (Histone deacetylase),IC50 (K562),IC50 [1]
CN1CC2(CC(=O)c3cc(/C=C/C(=O)NO)ccc3O2)C1,0.429 µM,0.168 µM,0.168 µM,0.178 µM
O=C(/C=C/c1ccc2c(c1)C(=O)CC1(CCN(Cc3ccc(F)cc3)C1)O2)NO (stereo not drawn),0.642 µM,0.196 µM,0.283 µM,0.178 µM
O=C(/C=C/c1ccc2c(c1)C(=O)CC1(CN(Cc3ccc(F)cc3)C1)O2)NO,0.684 µM,0.13 µM,0.301 µM,0.19 µM
CCOC(=O)N1CC2(CC(=O)c3cc(/C=C/C(=O)NO)ccc3O2)C1,4.87 µM,0.286 µM,1.88 µM,1.23 µM
CC(=O)N1CC2(CC(=O)c3cc(/C=C/C(=O)NO)ccc3O2)C1,47.7 µM,0.485 µM,15.1 µM,10.5 µM
O=C(/C=C/c1ccc2c(c1)C(=O)CC1(CCN(C(=O)c3ccccc3)C1)O2)NO (racemic),2.11 µM,0.187 µM,0.533 µM,0.51 µM
O=C(/C=C/c1ccc2c(c1)C(=O)CC1(CCNC1)O2)NO (racemic),2.32 µM,0.131 µM,4.14 µM,2.27 µM
CN1CCC2(CC(=O)c3cc(/C=C/C(=O)NO)ccc3O2)C1 (racemic),0.357 µM,0.119 µM,0.198 µM,0.146 µM
CCOC(=O)N1CCCC2(CC(=O)c3cc(/C=C/C(=O)NO)ccc3O2)C1 (racemic),2.28 µM,0.232 µM,0.936 µM,0.678 µM
CC(=O)N1CCCC2(CC1)CC(=O)c1cc(/C=C/C(=O)NO)ccc1O2 (racemic),20.1 µM,0.323 µM,5.18 µM,3.51 µM

# The next lines start with results.
IC50 (A549),IC50 (Histone deacetylase),IC50 (K562),SMILES,IC50 [1]
1.33 µM,0.081 µM,0.376 µM,O=C(/C=C/c1ccc2c(c1)C(=O)CC1(CN(C(=O)c3ccccc3)C1)O2)NO,0.294 µM
0.896 µM,0.219 µM,0.25 µM,O=C(/C=C/c1ccc2c(c1)C(=O)CC1(CN(CCc3ccccc3)C1)O2)NO,0.22 µM
8.58 µM,0.228 µM,2.58 µM,O=C(/C=C/c1ccc2c(c1)C(=O)CC1(CNC1)O2)NO,3.68 µM
0.839 µM,0.056 µM,0.43 µM,O=C(/C=C/c1ccc2c(c1)C(=O)CC1(CCCN(Cc3ccccc3)C1)O2)NO (racemic),0.385 µM
4.13 µM,0.165 µM,2.01 µM,O=C(/C=C/c1ccc2c(c1)C(=O)CC1(CCCN(C(=O)c3ccccc3)C1)O2)NO (racemic),1.33 µM
1.16 µM,0.034 µM,0.552 µM,O=C(/C=C/c1ccc2c(c1)C(=O)CC1(CCCN(Cc3ccc(F)cc3)C1)O2)NO (racemic),0.372 µM
14.5 µM,0.207 µM,5.6 µM,CC(=O)N1CCCC2(CC(=O)c3cc(/C=C/C(=O)NO)ccc3O2)C1 (racemic),3.24 µM
0.837 µM,0.15 µM,0.721 µM,CCOC(=O)N1CCC2(CC(=O)c3cc(/C=C/C(=O)NO)ccc3O2)C1 (racemic),0.351 µM
0.714 µM,0.136 µM,0.555 µM,O=C(/C=C/c1ccc2c(c1)C(=O)CC1(CCCNC1)O2)NO (racemic),0.228 µM
> 50 µM,0.955 µM,> 50 µM,CC(=O)N1CCC2(CC(=O)c3cc(/C=C/C(=O)NO)ccc3O2)C1 (racemic),> 50 µM
3.12 µM,0.134 µM,5.99 µM,O=C(/C=C/c1ccc2c(c1)C(=O)CC1(CCCNCC1)O2)NO (racemic),1.08 µM
5.75 µM,0.3 µM,1.66 µM,CCOC(=O)N1CCCC2(CC1)CC(=O)c1cc(/C=C/C(=O)NO)ccc1O2 (racemic),1.01 µM
